# Measured values from patent publication US20030119013A1, “Identification of essential genes of Aspergillus fumigatus and methods of use” (priority 2001, published 2003).
# What was measured:
# [1] = system: bar-coded strains bearing heterozygous mutations in HIS3, TUB1, ALG7, and ERG11; details: Saccharomyces cerevisiae, mixed population, challenged with respective compound; cited from earlier work
# [2] = system: wild-type Aspergillus fumigatus strain CEA 10; assay: Azole sensitivity on agar gradient plates, wild-type strain; assay type: cell-based; details: versus AfERG11 and AfERG11β knockout strains
# Text: (§1) Aspergillus fumigatus strains were constructed in which either the AfERG11 gene or the AfERG11β gene had been “knocked out.” Each of these strains was compared to the wild-type Aspergillus fumigatus strain CEA 10 with respect to its sensitivity, as analyzed on agar gradient plates, to two representative azole compounds, ketoconazole and itraconazole.
# [3] = system: AfERG11β knockout strain and AfERG11α knockout strain; assay: Azole sensitivity on agar gradient plates, knockout strains; assay type: cell-based, Aspergillus fumigatus
# Text: as §1
# [4] = system: Aspergillus fumigatus transformed cells containing the integrated PglaA promoter (AfHIS3); assay: Titration against 3-aminotriazole of PglaA-AfHIS3 promoter replacement strain; assay type: cell-based
# Text: Aspergillus fumigatus is sensitive to the catalase inhibitor 3-aminotriazole (3-AT), which targets the product of the HIS3 gene. The concentration of 3-AT sufficient to inhibit growth of Aspergillus fumigatus is thusly dependent on the amount of HIS3 gene product present in the cells.
# For instance, culturing the transformed cells containing the integrated PglaA promoter in a medium supplemented with different carbon sources or ratios of carbon sources allows the amount of AfHIS3 gene product to be increased or decreased relative to endogenous levels to generate cells that are more or less sensitive to 3-AT based on the amount of HIS3 gene product. It is known, for example, that transcription from the PglaA promoter is induced in the presence of maltose, repressed in the presence of xylose and intermediate levels of activity are detected from cells grown on glucose. By adjusting the ratio of maltose to xylose in the culture medium, the amount of transcription may be titrated, at least in a step-wise manner, to adjust levels of transcript in the cell.
# [5] = system: invasive aspergillosis (IA); details: patients with invasive aspergillosis; cited from earlier work
compound,measurement,setting,value
CCCCNC(=O)n1c(NC(=O)OC)nc2ccccc21 [benomyl],sensitivity of heterozygous drug-target strain compared with other heterozygote bar-coded strains,[1],significantly greater sensitivity
CC(=O)N1CCN(c2ccc(OCC3COC(Cn4ccnc4)(c4ccc(Cl)cc4Cl)O3)cc2)CC1 (stereo not shown) [ketoconazole],resistance of wild-type strain CEA 10 compared with either knockout strain,[2],more resistant
same,resistance of AfERG11β knockout strain compared with AfERG11α knockout strain,[3],more resistant
"Nc1nc[nH]n1 [3-AT, 3-aminotriazole]",sensitivity of Aspergillus fumigatus to 3-aminotriazole,"[4]; Aspergillus fumigatus, general statement",sensitive
same,resistance in the presence of 3-AT,"[4]; cells grown in the presence of maltose (e.g. 2% maltose), PglaA induced",increased resistance
same,resistance to 3-AT,"[4]; cells grown in the presence of xylose (e.g. 1% xylose), PglaA repressed",decreased resistance
same,sensitivity of heterozygous drug-target strain compared with other heterozygote bar-coded strains,[1],significantly greater sensitivity
"C[C@@H]1[C@H](O)[C@@H](C)/C=C/C=C/C=C/C=C/C=C/C=C/C=C/[C@H](O[C@@H]2O[C@H](C)[C@@H](O)[C@H](N)[C@@H]2O)C[C@@H]2O[C@](O)(C[C@@H](O)C[C@@H](O)[C@H](O)CC[C@@H](O)C[C@@H](O)CC(=O)O[C@H]1C)C[C@H](O)[C@H]2C(=O)O [AmB, amphotericin B]",overall success rate of therapy for IA,[5],34%
tunicamycin,sensitivity of heterozygous drug-target strain compared with other heterozygote bar-coded strains,[1],significantly greater sensitivity
OC(Cn1cncn1)(Cn1cncn1)c1ccc(F)cc1F [fluconazole],sensitivity of heterozygous drug-target strain compared with other heterozygote bar-coded strains,[1],significantly greater sensitivity
